In assay [1] the test system is THP-1 (vitamin D3 differentiated). The experiment in a line: EC50 of beta-agonist gene-signature score cos_weight_AC (signature01). The conditions noted are these: 4 h. The method, then: (§1)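 Vitamin-D3-differentiated THP-1 cells were treated 4 h with compounds (1:10 serial dilutions, top 100 uM). Two 8-gene QuantiGene Plex signatures were read out as TBP-normalised rscores; the cos_weight_AC signature score (% of 10 uM isoproterenol active control) was fitted by 4PL/nonparametric fit to give EC50, with constant fits assigned one log unit outside the tested range. cAMP EC50s come from a 20 min HTRF assay with IBMX at 37 °C, fitted with the same algorithm.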

Assay [2] has the same test system. The experiment in a line: EC50 of beta-agonist gene-signature score cos_weight_AC (signature02). The conditions noted are these: 4 h. As to the method: as §1
The test system is the same in assay [3]. The experiment in a line: cAMP EC50 (HTRF); higher = lower potency. The conditions noted are these: 20 min. The method, then:
as §1

± gives the standard deviation of the averaged measurements.

With `CC(Cc1ccc(OCC(=O)O)cc1)NCC(O)c1cccc(Cl)c1` (centres undefined), the EC50 in assay [1] is 421 nM; in assay [2], 167 nM. Moreover, in assay [3], the “cAMP EC50” value is 50.1 ± 31 nM.

`CC(C)(C)NCC(O)c1ccccc1Cl` (centres undefined) [Tulobuterol] had an EC50 in assay [2] of 215 nM. The “cAMP EC50” value in assay [3] was determined as 32.1 ± 20 nM.

In the case of `COc1ccc(CC(C)(C)NC[C@H](O)c2cc(O)cc3c2OCC(=O)N3)cc1` [Olodaterol], the EC50 turned out to be 2.88 nM in assay [1] and 0.127 nM in assay [2].

As to `CC(C)(Cc1ccccc1)NCC(O)c1ccc(O)c(NS(C)(=O)=O)c1` (centres undefined) [Zinterol], the half-maximal effective concentration (EC50) in assay [1] is 3.48 nM; in assay [2] it was 0.567 nM. The “cAMP EC50” value in assay [3] was < 0.01 nM.

Take `C=C[C@@]1(C)CC(=O)[C@]2(O)[C@@]3(C)[C@@H](O)CCC(C)(C)[C@@H]3[C@H](O)[C@H](OC(C)=O)[C@@]2(C)O1` [Forskolin]: the figures for the EC50 in assay [1] and in assay [2] were 2770 nM and 2310 nM, respectively.

In the case of `CCC(NC(C)C)C(O)c1ccc(O)c(O)c1` (centres undefined) [Isoetharine], the EC50 in assay [1] is 32.1 nM; in assay [2], 48.4 nM.

As for `CC(NCCc1ccc(O)cc1)C(O)c1ccc(O)cc1` (centres undefined) [Ritodrine], the EC50 in assay [1] was determined as 295 nM; in assay [2] it was 294 nM. In assay [3], the “cAMP EC50” value worked out at 624 ± 160 nM.

Turning to `COc1cc(NC(=O)CCN2CCC(OC(=O)Nc3ccccc3-c3ccccc3)CC2)c(Cl)cc1CNC[C@H](O)c1ccc(O)c2[nH]c(=O)ccc12` [Batefenterol], the EC50 in assay [1] was determined as 0.265 nM.

In the case of `COc1cc(C[C@@H]2NCCc3cc(O)c(O)cc32)cc(OC)c1OC` [Tretoquinol], the EC50 in assay [1] amounted to 0.237 nM.

As for `O=c1ccc2c([C@@H](O)CNCCCCCCOCC(F)(F)c3ccccc3)ccc(O)c2[nH]1` [Abediterol], the EC50 in assay [1] and in assay [2] was < 0.01 nM throughout. Further, the “cAMP EC50” value in assay [3] was < 0.01 nM.

In assay [1], `CC(CCc1ccc(O)cc1)NCCc1ccc(O)c(O)c1` (centres undefined) [Dobutamine] displayed an EC50 of 8.15 nM. The “cAMP EC50” value in assay [3] turned out to be 1.38 ± 0.91 nM.

Take `CC(Cc1ccc(O)cc1)NCC(O)c1cc(O)cc(O)c1` (centres undefined) [Fenoterol]: the EC50 came out at 8.21 nM in assay [1] and 3.65 nM in assay [2]. Also, in assay [3], the “cAMP EC50” value was 1.75 ± 1.5 nM.

On to `CCC(NC(C)C)C(O)c1ccc(O)c2[nH]c(=O)ccc12` (centres undefined) [Procaterol], for which, in assay [2], the EC50 was found to be 0.703 nM.

As to `COc1ccc(CC(C)NCC(O)c2ccc(O)c(NC=O)c2)cc1` (centres undefined) [Formoterol], the EC50 in assay [1] stood at 0.254 nM; in assay [2] it was 0.108 nM. Besides, the “cAMP EC50” value in assay [3] amounted to 0.0101 nM.

As to `OCc1cc([C@@H](O)CNCCCCCCOCCOCc2c(Cl)cccc2Cl)ccc1O` [Vilanterol], the 50% effective concentration (EC50) was found to be 5.65 nM in assay [1] and 5.86 nM in assay [2]. Moreover, the “cAMP EC50” value in assay [3] is < 0.01 nM.

As to `CNCCc1cnc[nH]1` [N-alpha-methylhistamine], the EC50 came out at 248 nM in assay [1] and 234 nM in assay [2]. In addition, in assay [3], the “cAMP EC50” value was found to be 180 ± 26 nM.

Take `CC(C)(C)NCC(O)c1ccc(O)c(CO)c1` (centres undefined) [Salbutamol]: the EC50 in assay [1] is 98.5 nM; in assay [2], 64.6 nM. Besides, the “cAMP EC50” value in assay [3] stood at 10.6 ± 9.1 nM.

Regarding `Oc1ccc(CCNCCCCCCNCCc2ccccc2)cc1O` [Dopexamine], the “cAMP EC50” value in assay [3] was determined as 13900 ± 12000 nM.

Regarding `NC[C@H](O)c1ccc(O)c(O)c1` [Norepinephrine], the EC50 in assay [1] stood at 1.46 nM; in assay [2] it was 6.13 nM. Besides, the “cAMP EC50” value in assay [3] worked out at 0.42 ± 0.14 nM.

With `Cn1cc(C(F)(F)F)nc1-c1ccc(OCC(O)CNCCOc2ccc(O)c(C(N)=O)c2)cc1` (centres undefined), the EC50 in assay [1] and in assay [2] was > 100000 nM each time. Besides, in assay [3], the “cAMP EC50” value was > 100000 nM.

On to `CNC[C@H](O)c1ccc(O)c(O)c1` [Adrenaline], for which the results for the EC50 in assay [1] and in assay [2] were 64.7 nM and 68.1 nM, respectively.

Regarding `CC(C)(C)NCC(O)c1cc(O)cc(O)c1` (centres undefined) [Terbutaline], the EC50 in assay [1] came to 216 nM; in assay [2], 230 nM. Further, the “cAMP EC50” value in assay [3] is 349 ± 260 nM.

In turn, `CC(C)NCC(O)c1cc(O)cc(O)c1` (centres undefined) [Metaproterenol] had a 50% effective concentration (EC50) in assay [1] of 21.6 nM. The “cAMP EC50” value in assay [3] amounted to 5.17 ± 2.3 nM.

(Values after the supplement of paper PMC7295968.)
